# Reference: US20030135033A1, “Compounds and methods for the identification and/ or validation of a target” (priority 2002, published 2003)
# Columns and labels:
# [1] = tested on: PTEN mRNA; experiment: Immunoblot of phosphorylated Akt after GeneBloc transfection of PTEN negative PC-3 cells; type: cell-based, human; conditions: PC-3 cells (PTEN negative), 30 nM, 48 h
# Protocol: More particularly, HeLa cells (380.000 cells/plate) and PC-3 cells (450.000 cells/plate) were transfected in parallel on 10 cm plates. Each cell line was treated for 48 h in duplicate samples with 30 nM of PTEN GeneBloc 53 or GBC. The cell extracts were analyzed by immunoblotting for the relative amounts of p110, PTEN and phosphorylated Akt (P*-Akt) as indicated on the right. The band which migrates just above the PTEN signal was caused by unspecific reaction of the secondary antibody. […]
# Cells were washed twice with cold phosphate-buffered saline and lysed at 4° C. in lysis buffer containing 20 mM Tris (pH 7.5), 137 mM NaCl, 15% (vol/vol) glycerol, 1% (vol/vol) Nonidet P-40 (NP-40), 2 mM phenylmethylsulfonyl fluoride, […], 20 mM leupeptin, 2 mM benzamidine, 1 mM sodium vanadate, 25 mM […]-glycerol phosphate, 50 mM NaF and 10 mM NaPPi. Lysates were cleared by centrifugation at 14,000× g for 5 minutes and aliquots of the lysates were analyzed for protein expression by Western-blotting: Samples were separated by SDS-PAGE and transferred to nitrocellulose-filters (Schleicher & Schuell). […] Bound antibody was detected using anti-mouse- or anti-rabbit-conjugated horse radish peroxidase (Transduction Laboratories, BD) in TBST, washed, and developed using the SuperSignal West Dura (Pierce) or ECL (Amersham) chemoluminescence substrates. […]
# [2] = tested on: PTEN mRNA; experiment: Immunoblot of PTEN and phosphorylated Akt after GeneBloc transfection of 3Y1 cells; type: cell-based, rat
# Protocol: A total of three different antisense oligonucleotides, also referred to as geneblocs herein, namely PTEN 48, PTEN 57 and PTEN 53 were transfected into rat-embryo fibroblast cell line together with a negative control comprising a randomised sequence (also referred to herein as GBC). More particularly, 3Y1 cells on 10 cm plates were transfected with 15 or 30 nM of the three different PTEN specific Geneblocs 48, 57 and 53 and with GBC. After 48 h cells were harvested and the cell extracts were analyzed by immunoblotting for the relative protein amounts of p110, Akt, phosphorylated Akt (P*-Akt) and PTEN as indicated on the right. […] The concentration dependency of the antisense oligonucleotides can be particularly well seen from the use of PTEN 57 and PTEN 53 and was confirmed by further experiments. The most powerful antisense oligonucleotide among said three antisense oligonucleotides was PTEN 53. P110 was used as a marker to reflect the loading of each of the lanes.
# In the corresponding experiment PTEN 53 was used as the antisense oligonucleotide and a total of four mismatches were introduced to the particular sequence with the total length of PTEN 57 being 23 nucleotides. Again, GBC was used as a negative control. The sequence of the mismatch oligonucleotide is BucucauuTsTssCssTspl sTssTssGssTssGsscucacgaB (SEQ ID No. 33) with B representing an inverted abasic nucleotide. In addition an antisense oligonucleotide was prepared specific for the mRNA of luciferase inhibiting luciferase expression in cells engineered to express the recombinant firefly gene. The respective lane on the Western blot is designated as “luc”. The same experiment was carried out using either 30 nM or 60 nM antisense oligonucleotide. As mentioned in connection with FIG. 3, P110 serves as an internal loading standard.
# Transfections were carried out in 96 well or 10-cm plates (at 30% to 50% confluency) by using various cationic lipids such as Oligofectamine, Lipofectamine (Life Technologies), NC388 (Ribozyme Pharmaceuticals, Inc., Boulder, CO), or FuGene 6 (Roche) according to the manufacturer's instructions. […] molecules, including third generation antisense molecules, were transfected by adding pre-formed 5× concentrated complex of GeneBloc and lipid in serum-free medium to cells in complete medium. The total transfection volume was 100 μl for cells plated in 96 wells and 10 ml for cells in 10 cm plates. The final lipid concentration was 0.8 to 1.2 μg/ml depending on cell density; the GeneBloc concentration is indicated in each experiment.
# Cells were washed twice with cold phosphate-buffered saline and lysed at 4° C. in lysis buffer containing 20 mM Tris (pH 7.5), 137 mM NaCl, 15% (vol/vol) glycerol, 1% (vol/vol) Nonidet P-40 (NP-40), 2 mM phenylmethylsulfonyl fluoride, […], 20 mM leupeptin, 2 mM benzamidine, 1 mM sodium vanadate, 25 mM […]-glycerol phosphate, 50 mM NaF and 10 mM NaPPi. Lysates were cleared by centrifugation at 14,000× g for 5 minutes and aliquots of the lysates were analyzed for protein expression by Western-blotting: Samples were separated by SDS-PAGE and transferred to nitrocellulose-filters (Schleicher & Schuell). Filters were blocked in TBST buffer (10 mM Tris-HCl (pH 7.5), 150 mM NaCl, 0.05% (vol/vol) Tween 20, 0.5% (wt/vol) sodium azide) containing 5% (wt/vol) dried milk. The respective antibodies were added in TBST at appropriate dilutions. Bound antibody was detected using anti-mouse- or anti-rabbit-conjugated horse radish peroxidase (Transduction Laboratories, BD) in TBST, washed, and developed using the SuperSignal West Dura (Pierce) or ECL (Amersham) chemoluminescence substrates. […]
# To further ensure that Akt phosphorylation is not caused by an artefact or by stress imposed through the transfection conditions we tested various negative control third generation antisense molecules (negative control GeneBlocs). […]
# [3] = 30 nM or 60 nM, PTEN 53 versus negative control GeneBlocs
# [4] = 3Y1 cells, 15 or 30 nM GeneBloc, 48 h
# [5] = 3Y1 cells, 15 or 30 nM GeneBloc, 48 h, listed as PTEN GeneBloc 53
substance,measurement,setting,value
"ucuccuuTTGTTTCTGcuaacga (UCUCCUUTTGTTTCTGCUAACGA; chemistry not fully specified) [PTEN 53, third generation antisense oligonucleotide (GeneBloc) against PTEN]",phosphorylated Akt (P*-Akt) (immunoblot),[1],generate phosphorylated Akt irrespective
same,phosphorylated Akt (P*-Akt) (immunoblot),[1]; listed as PTEN GeneBloc 53,had no effect
same,PTEN protein / PTEN mRNA degradation (immunoblot),[2]; [3],inhibited PTEN expression
same,phosphorylated Akt (P*-Akt) (immunoblot),[2]; [3],resulted in the phosphorylation of Akt
same,phosphorylated Akt (P*-Akt) (immunoblot),"[2]; 30 nM or 60 nM, PTEN 53 versus negative control GeneBlocs, listed as PTEN GeneBloc 53",caused an increase in Akt phosphorylation
same,PTEN protein (immunoblot),[2]; [4],no longer present
same,phosphorylated Akt (P*-Akt) (immunoblot),[2]; [4],phosphorylated Akt could be detected
same,PTEN protein (immunoblot),[2]; [5],most efficient knock down in PTEN expression
same,phosphorylated Akt (P*-Akt) (immunoblot),[2]; [5],strongest increase in Akt phosphorylation
same,ranking among the three PTEN antisense oligonucleotides,"[2]; 3Y1 cells, 15 or 30 nM, 48 h",most powerful
